From PubChem BioAssay (NCI)
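A five-concentration, 48-hour dose response in 96-well plates underlies each endpoint, interpolated linearly between surrounding concentrations. The concentration for full growth arrest is given as TGI.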 Where a SMILES comes first, the peptide text is derived from it. The star is where a group is joined. Boc = CC(C)(C)OC(=O)*; tBu = CC(C)(C)*

Tests used:
Test in all cases: inhibition of tumour cell growth, NCI panel, 48 h
HS 578T breast = test system: HS 578T breast
SF-268 CNS = test system: SF-268 CNS
SR leukemia = test system: SR leukemia
A549 NSCLC = test system: A549 NSCLC
K-562 leukemia = test system: K-562 leukemia
SK-MEL-28 melanoma = test system: SK-MEL-28 melanoma
IGROV1 ovarian = test system: IGROV1 ovarian
MDA-MB-231 breast = test system: MDA-MB-231 breast
NCI/ADR-RES ovarian = test system: NCI/ADR-RES ovarian
OVCAR-4 ovarian = test system: OVCAR-4 ovarian

Structure (SMILES)	TGI (HS 578T breast)	TGI (SF-268 CNS)	TGI (SR leukemia)	TGI (A549 NSCLC)	TGI (K-562 leukemia)	TGI (SK-MEL-28 melanoma)	TGI (IGROV1 ovarian)	TGI (MDA-MB-231 breast)	TGI (NCI/ADR-RES ovarian)	TGI (OVCAR-4 ovarian)
CCN(CC)Cc1ccc(Nc2c3ccccc3nc3ccccc23)cc1	21.8 µM	9.38 µM	22.2 µM	2.82 µM	7.69 µM	4.69 µM	13.9 µM	4.64 µM	22.4 µM	7.64 µM
CCOC(=O)C(C)(Cc1ccc(O)cn1)NC(=O)c1ccccc1 (stereo not given)	> 100 µM	> 100 µM	> 100 µM	> 100 µM	> 100 µM	> 100 µM	> 100 µM	> 100 µM	> 100 µM	> 100 µM
Cc1cc(NS(=O)(=O)c2ccc(NC(=O)c3ccc4nc5ccccc5c(Nc5ccc(S(=O)(=O)Nc6cc(C)on6)cc5)c4c3)cc2)no1	> 50 µM	> 50 µM	> 50 µM	> 50 µM	> 50 µM	> 50 µM	> 50 µM	> 50 µM	> 50 µM	> 50 µM
O=c1[nH]nc(Cc2ccccc2)n1C1CC1	> 100 µM	> 100 µM	> 100 µM	> 100 µM	> 100 µM	> 100 µM	> 100 µM	> 100 µM	> 100 µM	> 100 µM
O=C1CC(=O)NC(=NN2C(=O)/C(=C/c3ccc(Cl)cc3)N=C2c2ccccc2)N1	30.6 µM	34.2 µM	21.3 µM	30 µM	28 µM	33.6 µM	27.4 µM	35.6 µM	31.8 µM	22.5 µM
O=C(O)c1ccccc1CC(Cc1ccccc1)C(=O)O (stereo not given)	> 100 µM	> 100 µM	> 100 µM	> 100 µM	> 100 µM	> 100 µM	> 100 µM	> 100 µM	> 100 µM	> 100 µM
CC(C)=NNc1ncnc2nc[nH]c12	83.9 µM	> 100 µM	> 60.8 µM	> 72.4 µM	> 100 µM	> 100 µM	> 100 µM	> 94.3 µM	> 100 µM	> 100 µM
CC(OC(C)(C)C)C(NC(=O)C(N)CCCCNC(=O)OC(C)(C)C)C(=O)NC(Cc1ccccc1)C(=O)O (stereo not given) (H-Lys(Boc)-Thr(tBu)-Phe-OH; configuration not given here)	> 100 µM	> 100 µM	> 100 µM	> 100 µM	> 100 µM	> 100 µM	> 100 µM	> 100 µM	> 100 µM	> 100 µM
COc1cc(S(=O)(=O)Nc2ccc(-c3csc(/N=C\c4cccs4)n3)cc2)ccc1Cl	> 100 µM	> 100 µM	52.2 µM	> 100 µM	> 100 µM	> 100 µM	> 100 µM	> 100 µM	> 100 µM	> 100 µM
O=C(c1ccccc1)c1ccc2nc3n(c2c1)C(c1c(Cl)cccc1Cl)SC3 (stereo not given)	> 65 µM	> 100 µM	8.42 µM	54.7 µM	> 100 µM	> 100 µM	> 100 µM	> 100 µM	35.8 µM	> 80.3 µM
Nc1nc2c(c(=O)[nH]1)NC(CCNc1ccc(C(=O)O)cc1)CN2 (stereo not given)	> 100 µM	> 100 µM	> 100 µM	> 100 µM	> 100 µM	> 100 µM	> 100 µM	> 100 µM	> 100 µM	> 100 µM
O=S(=O)(c1ccc2ccccc2c1)N1CCN(S(=O)(=O)c2ccc3ccccc3c2)CC1	> 100 µM	> 100 µM	> 100 µM	> 100 µM	> 100 µM	> 100 µM	> 100 µM	> 100 µM	> 100 µM	> 100 µM
CC(C)(CC1(C)NC(=O)NC1=O)OCc1ccccc1 (stereo not given)	> 100 µM	> 100 µM	> 100 µM	> 100 µM	> 100 µM	> 100 µM	> 100 µM	> 100 µM	> 100 µM	> 100 µM
O=S(=O)(/N=C(\NO)Nc1ccc(Cl)cc1)c1cc(S(=O)(=O)c2ccccc2)cs1	54.8 µM	37 µM	95.7 µM	93.1 µM	31.6 µM	41.2 µM	44.9 µM	56.1 µM	> 100 µM	57.3 µM
COC(=O)C1(Cc2ccccc2)Cc2c(C)ccc(C)c2C1=O (stereo not given)	62 µM	> 100 µM	> 100 µM	36.4 µM	> 100 µM	> 100 µM	> 100 µM	38.4 µM	> 100 µM	> 100 µM
